Laboratory results published in patent publication US10307383B2, “Cosmetic composition for preventing or ameliorating hypersensitive skin comprising cedrol or derivatives thereof, or pharmaceutically acceptable salts thereof” (University of Seoul Industry Cooperation Foundation, priority 2017, dated 2019).
≈ marks a conversion by molar mass, not a printed value.

What was measured:
[1] = system: psoriasis induced mice (imiquimod); assay: Ear thickness reduction effect in the psoriasis induced mice (PASI); format: in vivo, Balb/c mouse; conditions: for mean ear thickness point (PASI): day 7, 100 mg/kg oral once a day, IMQ applied, IMQ alone 3.5
Description: (§1) To investigate the delayed effect of cedrol, cedryl acetate, and alpha-cedrene on the development of psoriasis, total 5 groups of mice were prepared (8 mice/group). First, the hair of the entire back of the 8-week-old male Balb/c mouse whose immune system was weakened was removed by using a hair clipper (Kimlaube Hair pen 325,327, Rikei, Korea). In the middle of the shaved back of the mouse, 2 mg of imiquimod (3M Health Care Limited, England) was applied in the area of 2 cm×1.5 cm and also 1,125 mg of imiquimod was applied on the right ear of the mouse every day once a day to induce psoriasis.
(§2) The mice prepared above were divided into the distilled water treated group (IMQ), the cedrol treated group (C), the cedryl acetate treated group (CA), and the alpha-cedrene treated group (CE). At this time, the mice were orally treated with distilled water at the concentration of 200 μl/mouse and cedrol or its derivatives at the concentration of 200 μl/mouse (100 mg/kg). The day when distilled water or the compound administration started was recorded as day 0 and the administration was performed once a day for a week, during which photo-recording was performed every day (FIGS. 2A˜2D). In the meantime, instead of applying imiquimod, 40 mg of vaseline was applied on the back of the control group (CONT) and 22.5 mg of vaseline was applied on the right ear of the control group. And the control group was orally administered with distilled water (200 μl/mouse).
Then, the psoriasis area severity index (PASI) was calculated with the range of 1˜4 to confirm the reduction effect of the compounds on the ear thickness.

[2] = system: psoriasis induced mice (imiquimod); assay: Keratosis reduction effect in the psoriasis induced mice (PASI); format: in vivo, Balb/c mouse; conditions: for keratosis mean point (PASI): day 7, 100 mg/kg oral once a day, IMQ applied, IMQ alone 3.8
Description: as §1, §2
Then, the psoriasis area severity index (PASI) was calculated to confirm the reduction effect of the compounds on keratosis. Keratosis is a symptom of psoriasis. The application of IMQ can induce keratosis.

[3] = system: psoriasis induced mice (imiquimod); assay: Cumulative score of PASI for ear thickness, keratosis and skin flair (development phase); format: in vivo, Balb/c mouse; conditions: 100 mg/kg oral, 7 days, IMQ applied
Description: as §1
as §2, with “And the control group was orally administered with distilled water (200 μl/mouse).” left out

[4] = system: psoriasis induced mice (imiquimod); assay: Skin thickness of the psoriasis induced mice (hematoxylin and eosin staining); format: in vivo, Balb/c mouse; conditions: day 7, 100 mg/kg oral; for skin thickness: IMQ applied, control 1,045, IMQ alone 1,181; for skin thickness, % inhibition: versus IMQ alone
Description: as §1, §2
The skin of the psoriasis induced mice orally administered with cedrol, cedryl acetate, and alpha-cedrene of Example <2-1> was stained with hematoxyline and eosine in order to compare the skin thickness.
Particularly, the psoriasis induced mice of Example <2-1> were sacrificed with CO2, from which 1 cm×1 cm portions of the back surface were obtained and placed in PBS. The tissues washed with PBS were loaded in 10% formalin, followed by fixing at room temperature for a day. The fixed tissues were washed with PBS once, followed by dehydration with 25% methanol, 50% methanol, 75% methanol, and 100% methanol for 30 minutes each. Further dehydration of those tissues was additionally performed with 100% ethanol twice for 30 minutes each; with the mixed solution comprising ethanol and xylene (1:1) for 30 minutes, and with 100% xylene twice for 30 minutes each. 4 hours before washing, the modular tissue embedding center (LEICA EG 1150H, Leica, Germany) was turned on and paraplast plus (Sigma Aldrich, Korea) was melted at 60° C., followed by washing the paraffin. The tissues were loaded in a bottle, to which the melted paraffin was poured in, followed by washing in a 60° C. warm chamber twice for one hour each. The xylene-free tissues were placed in the paraffin solution, followed by reaction in the warm chamber for a day. The tissue sections were then placed on a Peel-A-Way embedding mold (Polysciences, Taiwan) and the paraffin solution was filled to half of the mold. The tissue sections were placed on top of the Peel-A-Way embedding mold, followed by fixing. An embedding ring (Thomas Scientific, USA) was placed on the mold, which was treated with the paraffin solution to solidify the mold and the ring at 4° C. for 3 hours, followed by reaction at 4° C. for a day. The embedded tissues can be semipermanently stored at 4° C. The embedded tissues were cut by using a semi-motorized rotary microtome (LEICA RM2145 Microtome, Leica, Germany), which were suspended in a 37° C. water bath to spread the paraffin wrinkles. The straightened wrinkles were collected by using a micro silane coating slide (Muto Pure Chemicals, Japan), which were dried at 37° C. for a day. When the tissues were completely dried, they were treated with xylene twice for 5 minutes each in order to eliminate the paraffin remaining in the tissues. The tissues were further washed with the mixed solution comprising ethanol and xylene (1:1), 100% ethanol, 100% methanol, 75% methanol, and 50% methanol for 2 minutes each to stain the tissues easily. […]

[5] = system: psoriasis induced mice (imiquimod); assay: Recovery effect on ear thickness of the psoriasis induced mice after termination of imiquimod (PASI); format: in vivo, Balb/c mouse
Description: (§3) Imiquimod was applied to the psoriasis induced mice which had developed psoriasis for a week in Example <2-1>. The application was stopped 8 days after the application began. The groups CON and IMQ were treated with distilled water, the group C was treated with cedrol, the group CA was treated with cedryl acetate, the group CE was treated with alpha-cedrene alone at the concentration of 100 mg/kg in 200 μl, every day via oral-administration. Day 8 was the day the imiquimod application was stopped, since then the compounds were administered for 1 week once a day, during which photo-recording was performed (FIGS. 13A˜13D).
The psoriasis area severity index (Psoriasis Area Severity Index, PASI) was given from the point 1 to point 4, based on which the recovery effect on the ear thickness was evaluated.

[6] = system: psoriasis induced mice (imiquimod); assay: Recovery effect on skin wrinkles of the psoriasis induced mice; format: in vivo, Balb/c mouse
Description: as §3
The psoriasis induced mice orally administered with cedrol, cedryl acetate, and alpha-cedrene of Example <3-1> were observed by the naked eye, and the number of mice showing the recovery of skin wrinkles was counted.

IL-17A expression = assay: IL-17A inhibition assay in IL-17 luciferase-(LUCPorter) stable reporter cell line; conditions: for Inhibition of IL-17A expression (%) Experiment-1 / Inhibition of IL-17A expression (%) Experiment-2 / Inhibition of IL-17A expression (%) Experiment-3: 6 hours; for expression of IL-17A (luciferase units): control group 2,582 units; for suppression of the expression of IL-17A (in words): 10, 100, or 1,000 μg/ml; for inhibition at 10 µg/mL / inhibition at 100 µg/mL / inhibition at 1000 µg/mL / IC50: Homo sapiens; for inhibition at 10 µg/mL / inhibition at 100 µg/mL / inhibition at 1000 µg/mL: read-out: Average Inhibition (%); for IC50: read-out: IC50 to inhibit the IL-17A expression by 50%
[7] = day 8 (imiquimod application stopped), 100 mg/kg oral
[8] = day 8, 100 mg/kg oral, 8 mice/group
[9] = day 16, 100 mg/kg oral after termination of imiquimod
[10] = 100 mg/kg oral after termination of imiquimod

SMILES	mean ear thickness point (PASI) [1]	keratosis mean point (PASI) [2]	skin thickness [4]	skin thickness, % inhibition [4]	PASI reflecting the ear thickness [5, 7]	number of mice showing skin wrinkles [6, 8]	expression of IL-17A, % by the control (IL-17A expression; 10 μg/ml)	Inhibition of IL-17A expression (%) Experiment-2 (IL-17A expression; 10 μg/ml)	Inhibition of IL-17A expression (%) Experiment-3 (IL-17A expression; 10 μg/ml)	expression of IL-17A (luciferase units) (IL-17A expression; 10 μg/ml)	expression of IL-17A, % by the control (IL-17A expression; 100 μg/ml)	Inhibition of IL-17A expression (%) Experiment-2 (IL-17A expression; 100 μg/ml)	Inhibition of IL-17A expression (%) Experiment-3 (IL-17A expression; 100 μg/ml)	expression of IL-17A (luciferase units) (IL-17A expression; 100 μg/ml)	expression of IL-17A, % by the control (IL-17A expression; 1,000 μg/ml)	Inhibition of IL-17A expression (%) Experiment-2 (IL-17A expression; 1000 μg/ml)	Inhibition of IL-17A expression (%) Experiment-3 (IL-17A expression; 1000 μg/ml)	expression of IL-17A (luciferase units) (IL-17A expression; 1,000 μg/ml)	suppression of the expression of IL-17A (in words) (IL-17A expression)	inhibition at 10 µg/mL (IL-17A expression)	other results
CC1=CC[C@@]23C[C@@H]1C(C)(C)[C@@H]2CC[C@H]3C [alpha-cedrene, Alpha-cedrene]	2.6 point	2.66 point	954 μm	19.2 % inhibition	4.0±0.0 point	3 mice	79 % by the control	3%	21%	2,042±114 units	68 % by the control	11%	32%	1,757±310 units	65 % by the control	23%	35%	1,688±64 units	dose-dependently	10%	keratosis reduction effect, comparison in words ([2]; 100 mg/kg oral, 7 days): strongest reduction effect; cumulative PASI (ear thickness, keratosis, skin flair) reduction effect, in words [3]: strongest reduction effect at a similar level; PASI reflecting the ear thickness ([5]; day 15, 100 mg/kg oral once a day after termination of imiquimod): 0.7±0.6 point; number of mice showing skin wrinkles [6, 9]: no mouse; Inhibition of IL-17A expression (%) Experiment-1 (IL-17A expression; 10 μg/ml): 6%; Inhibition of IL-17A expression (%) Experiment-1 (IL-17A expression; 100 μg/ml): 21%; Inhibition of IL-17A expression (%) Experiment-1 (IL-17A expression; 1000 μg/ml): 36%; inhibition at 100 µg/mL (IL-17A expression): 21.3%; inhibition at 1000 µg/mL (IL-17A expression): 31.3%; IC50 (IL-17A expression): 1510 µg/mL (≈ 7.37 mM)
C[C@@H]1CC[C@H]2C(C)(C)[C@H]3C[C@@]12CC[C@@]3(C)O [cedrol, Cedrol]	2.6 point	3.00 point	954 μm	19.2 % inhibition	4.0±0.6 point	5 mice	67 % by the control	0%	33%	1,718±174 units	57 % by the control	14%	43%	1,460±124 units	28 % by the control	59%	72%	715±45 units	dose-dependently	19%	PASI reflecting the ear thickness ([5]; day 16, 100 mg/kg oral once a day after termination of imiquimod): 0.7±0.6 point; skin wrinkle recovery effect, comparison in words [6, 10]: strongest recovery effect; number of mice showing skin wrinkles ([6]; after day 15, 100 mg/kg oral after termination of imiquimod): no mouse; Inhibition of IL-17A expression (%) Experiment-1 (IL-17A expression; 10 μg/ml): 24%; Inhibition of IL-17A expression (%) Experiment-1 (IL-17A expression; 100 μg/ml): 21%; Inhibition of IL-17A expression (%) Experiment-1 (IL-17A expression; 1000 μg/ml): 76%; inhibition at 100 µg/mL (IL-17A expression): 26%; inhibition at 1000 µg/mL (IL-17A expression): 69%; IC50 (IL-17A expression): 726 µg/mL (≈ 3.26 mM)
CC(=O)O[C@]1(C)CC[C@@]23C[C@@H]1C(C)(C)[C@@H]2CC[C@H]3C [cedryl acetate, Cedryl acetate]	2.3 point	3.08 point	999 μm	15.3 % inhibition	4.0±0.6 point	3 mice	77 % by the control	15%	23%	1,994±304 units	64 % by the control	27%	36%	1,648±138 units	10 % by the control	74%	90%	257±6 units	dose-dependently	19%	ear thickness reduction effect, comparison in words ([1]; 100 mg/kg oral, 7 days): strongest reduction effect; cumulative PASI (ear thickness, keratosis, skin flair) reduction effect, in words [3]: strongest reduction effect at a similar level; ear thickness recovery effect, comparison in words [5, 10]: strongest recovery effect; ear thickness recovered to normal (in words) ([5]; from day 15, 100 mg/kg oral after termination of imiquimod): all 8 mice were recovered to normal; number of mice showing skin wrinkles [6, 9]: no mouse; inhibition at 100 µg/mL (IL-17A expression): 31.5%; inhibition at 1000 µg/mL (IL-17A expression): 82%; IC50 (IL-17A expression): 608 µg/mL; IL-17A expression inhibition activity, comparison in words (IL-17A expression; order by IC50 of Table 3): strongest IL-17A expression inhibition activity
